Structures can show the parent of a compound that is named as a salt. Where two headings read alike, the source gives them in different places.
Assays:
potentiation of 5-HTP = assay: 5-HTP potentiation (5-HTP syndrome); assay type: in vivo; conditions: Mus musculus, ip, 0.5 h; i.p., mice; 5-HTP 100 mg/kg i.v. 30 min after test substance; read-out: 5-HTP potentation,ED50
Experimental: The test substance is given i.p. or p.o. in the doses 10, 10, 2.5, 0.63 and 0 mg/kg. Three mice are used for each dose level. One of the groups on the highest dose is used as control of the compounds own effect. […] Thirty minutes after administration of test substance, 5-HTP, 100 mg/kg i.v. is given (injection time 5-10 sec.). After this 5-HTP dose the animals remain unaffected. If the animals have been pretreated with a substance, which inhibits the re-uptake of 5-HT, a 5-HTP syndrome will occur. This is characterized by the following symptoms: 1) excitation, 2) tremor, and 3) abduction of the hind limbs.
After the administration of 5-HTP the animals are observed for 15 minutes and each animal is given one point for each symptom present. Thus, the maximal score for a group consisting of 3 mice is 9.
The results are stated as fractions: 0/9, 1/9, 2/9 ..... 8/9, 9/9, where 0, 1, 2 ..... 8, 9 are the number of points per group after the dose in question.

[1] = target: T1, ^3H-DA uptake in striatal synaptosomes (Rattus norvegicus, UniProt P23977); assay: biochemical; assay type: biochemical, Rats
T1 construct: the two corpura striata are dissected out and gently homogenized; from tissue; host or cells: rat corpus striatum, synaptosomal P2 fraction
T1 sequence (P23977 whole entry): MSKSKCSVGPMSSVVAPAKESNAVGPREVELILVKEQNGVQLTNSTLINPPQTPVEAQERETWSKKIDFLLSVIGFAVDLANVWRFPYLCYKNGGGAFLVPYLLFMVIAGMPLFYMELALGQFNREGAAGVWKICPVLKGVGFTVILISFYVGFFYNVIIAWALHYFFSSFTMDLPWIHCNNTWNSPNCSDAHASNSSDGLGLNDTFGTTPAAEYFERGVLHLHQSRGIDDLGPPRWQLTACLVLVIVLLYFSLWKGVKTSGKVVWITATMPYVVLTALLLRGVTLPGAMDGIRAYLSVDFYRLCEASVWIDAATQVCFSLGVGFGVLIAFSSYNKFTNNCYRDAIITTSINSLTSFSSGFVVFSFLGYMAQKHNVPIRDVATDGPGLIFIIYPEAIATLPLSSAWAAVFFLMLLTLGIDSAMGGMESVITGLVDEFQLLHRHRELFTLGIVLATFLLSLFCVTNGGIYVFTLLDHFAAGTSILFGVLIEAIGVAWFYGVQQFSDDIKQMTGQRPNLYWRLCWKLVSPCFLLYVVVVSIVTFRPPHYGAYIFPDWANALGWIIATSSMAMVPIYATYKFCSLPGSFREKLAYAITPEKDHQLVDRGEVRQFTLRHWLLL
Experimental: ^3H-DA uptake in striatal synaptosomes in vitro.
(§1) 0.32 M sucrose containing 1 mM Nialamide
Krebs-Ringer-phosphate buffer, pH 7.4
3,4-dihydroxyphenylethylamine [ethyl-1-^3H(N)] = ^3H-DA, spc. act. app. 15 Ci/mmol, New England Nuclear
(§2) Thomas Tissue Grinder, clearance 0.004-0.006 inch.
Rats are killed by a blow to their head, exsanguinated and their brains removed. The brain is placed on a precooled glassplate, and the two corpura striata are dissected out and gently homogenized in 40 volumes of ice cold 0.32 M sucrose containing 1 mM of nialamide using a hand homogenizer with teflon pestle. The P2-fraction (synaptosomal fraction) is obtained by centrifugation (600 g, 10 min., 25000 g, 55 min. 4 °C) and suspended in 40 volumes of a modified Krebs-Ringer-phosphate buffer, pH 7.4. To 200µl of the synaptosomal fraction on ice are added 3700 µl modified Krebs-Ringer-phosphate buffer - containing test compounds. After a preincubation at 37°C for 5 min. […] The incubation is terminated by filtering the samples under vacuum through Millipore filters with a wash of 5 ml buffer containing 10 µM of unlabelled DA. After solubilizing the filters in 1 ml of cellosolve the radioactivity is determined by liquid scintillation counting after the addition of 10 ml of Insta-Gel. The unspecific binding of ^3H-DA is determined by incubating control samples on ice instead of at 37 °C.
All experiments are performed in ttriplicate.
The mean of all control samples and ice samples are calculated.

[2] = system: tetrabenazine induced ptosis; assay: Tetrabenazine ptosis antagonism; assay type: in vivo; conditions: Mus musculus, ip, 0.5 h; i.p., mice; tetrabenazine 40 mg/kg i.p. 30 min after test substance
Experimental: For insoluble substances the doses 0, 1/8, 1/32 and 1/128 of "i.^p. LD50" are used. 3 mice are used for each dose level. Thirty minutes after administration of test substance, tetrabenazine, 40 mg/kg, is injected i.p. Ptosis is evaluated 30 minutes after administration of tetrabenazine, the following rating scale being used: 0 = normal eyes, 1=1/4 closed eyes, 2 = 1/2 closed eyes, 3 = 3/4 closed eyes and 4 = completely closed eyes. Ptosis is evaluated 30 seconds after tilting the cage 3 times. The tilting is carried out in such a way that the animals slide along the floor of the cage.
The results are recorded as % inhibition of ptotic score calculated on the basis of the score of the control group. If ptotic score for the control group is < 10 the test is rejected and another is performed. The registration can also be done as an on line procedure.

[3] = target: T2, ^3H-5-HT uptake in synaptosomes (Rattus norvegicus, UniProt P31652); assay: Inhibition of 3H-5-HT uptake in synaptosomes in vitro; assay type: biochemical, Rats; conditions: rat brain synaptosomes, 3H-5-HT 10 nM; read-out: Uptake Inhibition IC50 5-HT
T2 construct: Rest of the brain is gently homogenized (glass teflon homogenizer); from tissue; host or cells: rat brain without cerebellum, pons and medulla oblongata, synaptosomal P2 fraction
T2 sequence (P31652 whole entry): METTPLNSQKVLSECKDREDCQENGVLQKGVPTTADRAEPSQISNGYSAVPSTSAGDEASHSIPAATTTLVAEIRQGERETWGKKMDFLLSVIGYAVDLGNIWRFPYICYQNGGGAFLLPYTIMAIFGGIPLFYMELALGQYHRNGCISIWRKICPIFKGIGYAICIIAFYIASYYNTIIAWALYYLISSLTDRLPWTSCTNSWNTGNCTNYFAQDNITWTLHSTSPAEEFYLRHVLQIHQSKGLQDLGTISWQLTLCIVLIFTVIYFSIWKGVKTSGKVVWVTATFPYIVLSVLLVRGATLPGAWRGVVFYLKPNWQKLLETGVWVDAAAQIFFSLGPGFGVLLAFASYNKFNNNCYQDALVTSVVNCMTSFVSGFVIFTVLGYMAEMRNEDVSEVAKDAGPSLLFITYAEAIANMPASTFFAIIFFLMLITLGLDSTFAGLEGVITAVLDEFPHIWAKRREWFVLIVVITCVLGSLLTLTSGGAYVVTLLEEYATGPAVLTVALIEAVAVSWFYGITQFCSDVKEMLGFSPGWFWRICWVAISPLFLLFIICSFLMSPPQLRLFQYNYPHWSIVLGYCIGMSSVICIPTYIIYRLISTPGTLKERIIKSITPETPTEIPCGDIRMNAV
Experimental: Inhibition of ^3H-5-HT uptake in synaptosomes in vitro.
as §1
Krebs-Ringer-Phosphate buffer, pH 7.4
Millipore filters (HAWPO 2500, 0.45 µ)
5-hydroxy [G-^3H] tryptamine creatinine sulphate = ^3H-5-HT, spc. act. app. 10 Ci/mmol, The Radiochemical Centre, Amersham.
as §2
Rats are killed by a blow on the head and exsanguinated. The brain is quickly removed, rinsed for blood and placed on a cold plate. The cerebellum, pons and medulla oblongata are removed. Rest of the brain is gently homogenized (glass teflon homogenizer) in 40 volumes of ice cold 0.32 M of sucrose containing 1 mM of nialamide. The P2 fraction (synaptosomal fraction) is obtained by centrifugation (600 g, 10 min. and 25000 g, 55 min., 4°C) and suspended in 40 volumes of a modified Krebs-Ringer-Phosphate buffer, pH 7.4.
To 200µl of the synaptosomal suspension on ice are added 3700 µl modified Krebs-Ringer-phosphate buffer, pH 7.4, containing test substances. After preincubation at 37°C for 5 min., 100 µl of ^3H-5-HT (final concentration in the samples = 10 nM) are added and the samples are incubated for 10 min. at 37 °C. The incubation is terminated by filtering the samples under vacuum through Millipore filters with a wash of 5 ml buffer containing 10 µM of unlabelled 5-HT. After solubilizing the filters in I ml of cellosolve, 10 ml of Instagel are added, and the radioactivity is determined by liquid and scintillation counting. The unspecific binding and passive transport of ^3H-5-HT is determined by incubating control samples on ice instead of at 37°C. All experiments are performed in triplicate. The mean of all control samples are calculated.
The IC50- values are determined as the concentrations, at which the uptake are 50 per cent of the uptake in control sample -uptake in ice samples.

[4] = rat striatal synaptosomes, 3H-DA 12.5 nM, read-out: Uptake Inhibition IC50 DA

NC1CC(c2ccc(Cl)c(Cl)c2)c2ccccc21 (centres unmarked) [Lu 19-030-o]
ED50 (potentiation of 5-HTP): > 27 µmol/kg | IC50 [1, 4]: 7.4 nM | ED50 [2]: 16 µmol/kg | IC50 [3]: 15 nM

CCN(CC)C1CC(c2ccc(Cl)c(Cl)c2)c2ccccc21 (centres unmarked) [Lu 18-188-c]
IC50 ([1]; read-out: Uptake Inhibition IC50 DA): 120 nM | ED50 [2]: > 108 µmol/kg | IC50 [3]: 13 nM

CCN(CC)[C@@H]1C[C@@H](c2ccc(F)cc2)c2ccc(C)cc21 (relative stereo) [Lu 18-200-c]
IC50 [1, 4]: 210 nM | ED50 [2]: 63 µmol/kg

CCN(CC)C1CC(c2ccc(F)cc2)c2ccc(F)cc21 (centres unmarked) [Lu 18-148-c]
IC50 [1, 4]: 1600 nM | ED50 [2]: > 118 µmol/kg | IC50 [3]: 440 nM

CCN(CC)[C@@H]1C[C@@H](c2ccc(F)cc2)c2ccc(F)cc21 (relative stereo) [Lu 18-149-c]
IC50 [1, 4]: 68 nM | ED50 [2]: 52 µmol/kg | IC50 [3]: 140 nM

CN(C)C1CC(c2ccc(F)cc2)c2ccccc21 (centres unmarked) [Lu 19-008-c]
ED50 (potentiation of 5-HTP): 25 µmol/kg | IC50 [1, 4]: 250 nM | ED50 [2]: > 137 µmol/kg

CN(C)CCC=C1c2ccccc2CCc2ccccc21 [Amitrip-tyline, amitriptyline, reference compound]
IC50 [1]: 5400 nM | ED50 [2]: 7 µmol/kg

CN(C)[C@@H]1C[C@@H](c2ccc(Cl)cc2Cl)c2ccccc21 (relative stereo) [Lu 18-136-c]
ED50 (potentiation of 5-HTP): 19 µmol/kg | ED50 [2]: 23 µmol/kg

Clc1ccc([C@@H]2C[C@@H](NCCc3ccccc3)c3ccccc32)cc1Cl (relative stereo) [Lu 19-078-c]
ED50 (potentiation of 5-HTP): 142 µmol/kg | ED50 [2]: 33 µmol/kg

CN[C@@H]1C[C@@H](c2ccc(Cl)cc2)c2ccccc21 (relative stereo) [Lu 19-119]
ED50 (potentiation of 5-HTP): 34 µmol/kg | ED50 [2]: > 155 µmol/kg

CCNC1CC(c2ccc(Cl)c(Cl)c2)c2ccccc21 (centres unmarked) [Lu 19-041-c]
ED50 (potentiation of 5-HTP): 24 µmol/kg | IC50 [1, 4]: 62 nM | ED50 [2]: > 117 µmol/kg

CN(C)C1CC(c2ccc(N)cc2)c2ccc(F)cc21 (centres unmarked) [Lu 19-022-c]
ED50 (potentiation of 5-HTP): 14 µmol/kg | IC50 [1, 4]: 170 nM | ED50 [2]: 19 µmol/kg

CCN[C@@H]1C[C@@H](c2ccc(Cl)c(Cl)c2)c2ccccc21 (relative stereo) [Lu 19-040-c]
ED50 (potentiation of 5-HTP): 26 µmol/kg | ED50 [2]: > 7 µmol/kg

CNC1CC(c2ccc(F)c(Cl)c2)c2ccccc21 (centres unmarked) [Lu 19-086-c]
ED50 (potentiation of 5-HTP): 30 µmol/kg | ED50 [2]: 32 µmol/kg

CCN(C)[C@@H]1C[C@@H](c2ccc(F)c(Cl)c2)c2ccccc21 (relative stereo) [Lu 19-105-o, trans N-ethyl-N-methyl-N-3-(3'-chloro-4'-fluorophenyl)-indanamine]
ED50 (potentiation of 5-HTP): 95 µmol/kg | ED50 [2]: 12 µmol/kg

CN[C@@H]1C[C@H](c2ccc(Br)cc2)c2ccccc21 (relative stereo) [Lu 19-103-c]
ED50 (potentiation of 5-HTP): 6.6 µmol/kg | ED50 [2]: 29 µmol/kg

Clc1ccc([C@@H]2C[C@@H](NCC=Cc3ccccc3)c3ccccc32)cc1Cl (relative stereo) [Lu 19-083-o]
ED50 (potentiation of 5-HTP): > 83 µmol/kg | ED50 [2]: > 83 µmol/kg

OCCN[C@@H]1C[C@@H](c2ccc(Cl)c(Cl)c2)c2ccccc21 (relative stereo) [Lu 19-074-c]
ED50 (potentiation of 5-HTP): 270 µmol/kg | ED50 [2]: 75 µmol/kg

OCCN(CCO)[C@@H]1C[C@@H](c2ccc(Cl)c(Cl)c2)c2ccccc21 (relative stereo) [Lu 19-082-c]
ED50 (potentiation of 5-HTP): > 99 µmol/kg | ED50 [2]: 104 µmol/kg

CN[C@@H]1C[C@@H](c2ccc(Br)cc2)c2ccccc21 (relative stereo) [Lu 19-102-c]
ED50 (potentiation of 5-HTP): 8.8 µmol/kg | ED50 [2]: 4 µmol/kg

CN[C@@H]1C[C@H](c2cccc(Cl)c2)c2ccccc21 (relative stereo) [Lu 19-110-c]
ED50 (potentiation of 5-HTP): 124 µmol/kg | ED50 [2]: 142 µmol/kg

CN(C)[C@@H]1C[C@H](c2ccc(F)c(Cl)c2)c2ccccc21 (relative stereo) [Lu 19-101-c, cis-N,N-dimethyl-3-(3-chloro-4-fluorophenyl)-1-indanamine, hydrochloride]
ED50 (potentiation of 5-HTP): 51 µmol/kg | ED50 [2]: 24 µmol/kg

CCCN(CCC)[C@@H]1C[C@@H](c2ccc(Cl)c(Cl)c2)c2ccccc21 (relative stereo) [Lu 19-042-c]
ED50 (potentiation of 5-HTP): > 100 µmol/kg | ED50 [2]: > 25 µmol/kg

CN(C)[C@@H]1C[C@@H](c2ccc(F)cc2)c2ccc(F)cc21 (relative stereo) [Lu 13-114-c]
ED50 (potentiation of 5-HTP): > 130 µmol/kg | ED50 [2]: 28 µmol/kg

CN[C@@H]1C[C@H](c2ccc(F)c(F)c2)c2ccccc21 (relative stereo) [Lu 19-104-c, cis-N-methyl-3-(3,4-difluorophenyl)-1-indanamine]
ED50 (potentiation of 5-HTP): 63 µmol/kg | ED50 [2]: 23 µmol/kg

CN[C@@H]1C[C@@H](c2cccc(Cl)c2)c2ccccc21 (relative stereo) [Lu 19-111-c]
ED50 (potentiation of 5-HTP): 92 µmol/kg | ED50 [2]: 45 µmol/kg

CN(C)[C@@H]1C[C@H](c2ccc(Br)cc2)c2ccccc21 (relative stereo) [Lu 19-057]
ED50 (potentiation of 5-HTP): 12 µmol/kg | ED50 [2]: 3.9 µmol/kg

CN(C)[C@@H]1C[C@H](c2ccc(Cl)c(Cl)c2)c2ccc(F)cc21 (relative stereo) [Lu 19-144-c]
ED50 (potentiation of 5-HTP): 29 µmol/kg | ED50 [2]: > 111 µmol/kg

CN(C)[C@@H]1C[C@@H](c2ccc(F)c(F)c2)c2ccccc21 (relative stereo) [Lu 19-095-c]
ED50 (potentiation of 5-HTP): 73 µmol/kg | ED50 [2]: 7.1 µmol/kg

CN(C)[C@@H]1C[C@@H](c2ccc(F)c(Cl)c2)c2ccccc21 (relative stereo) [Lu 19-100-c, trans N,N-dimethyl-3-(3-chloro-4-fluorophenyi)-1-indanamine]
ED50 (potentiation of 5-HTP): 37 µmol/kg | ED50 [2]: 4 µmol/kg

From patent EP0076669A1, “Novel 3-phenyl-1-indanamines, pharmaceutical compositions and methods of preparation” (KEFALAS A/S, priority 1981, dated 1983)
